The target of one data set is CYP-3A4 (Homo sapiens (Human), UniProt P08684). In words: Inhibition of CYP-3A4 (midazolam substrate). The format is in vitro ADME. The settings on record: for IC50: substrate midazolam, read-out: Inhibition to CYP-3A4, 3A4_Midazolam.
Data set [1] concerns human non-small cell lung carcinoma NCI-H2228. The data set can be described thus: Therapeutic effect on human non-small cell lung carcinoma NCI-H2228 xenografts in nude mice. It is filed as in vivo. The note with it: D0-13 once a day; for Average tumor volume (mm^3) D0: D0 baseline at grouping. For orientation: In xenograft studies the graft and the host belong to different species.

In the next data set the target is ALK kinase (Homo sapiens (Human), UniProt Q9UM73). The settings on record: read-out: IC50 (nM), ALK inhibition activity; HTRF, ATP at Km. In general terms: In TR-FRET formats the signal depends on donor and acceptor labels being close together.
ALK kinase, sequence (Q9UM73 19-1620): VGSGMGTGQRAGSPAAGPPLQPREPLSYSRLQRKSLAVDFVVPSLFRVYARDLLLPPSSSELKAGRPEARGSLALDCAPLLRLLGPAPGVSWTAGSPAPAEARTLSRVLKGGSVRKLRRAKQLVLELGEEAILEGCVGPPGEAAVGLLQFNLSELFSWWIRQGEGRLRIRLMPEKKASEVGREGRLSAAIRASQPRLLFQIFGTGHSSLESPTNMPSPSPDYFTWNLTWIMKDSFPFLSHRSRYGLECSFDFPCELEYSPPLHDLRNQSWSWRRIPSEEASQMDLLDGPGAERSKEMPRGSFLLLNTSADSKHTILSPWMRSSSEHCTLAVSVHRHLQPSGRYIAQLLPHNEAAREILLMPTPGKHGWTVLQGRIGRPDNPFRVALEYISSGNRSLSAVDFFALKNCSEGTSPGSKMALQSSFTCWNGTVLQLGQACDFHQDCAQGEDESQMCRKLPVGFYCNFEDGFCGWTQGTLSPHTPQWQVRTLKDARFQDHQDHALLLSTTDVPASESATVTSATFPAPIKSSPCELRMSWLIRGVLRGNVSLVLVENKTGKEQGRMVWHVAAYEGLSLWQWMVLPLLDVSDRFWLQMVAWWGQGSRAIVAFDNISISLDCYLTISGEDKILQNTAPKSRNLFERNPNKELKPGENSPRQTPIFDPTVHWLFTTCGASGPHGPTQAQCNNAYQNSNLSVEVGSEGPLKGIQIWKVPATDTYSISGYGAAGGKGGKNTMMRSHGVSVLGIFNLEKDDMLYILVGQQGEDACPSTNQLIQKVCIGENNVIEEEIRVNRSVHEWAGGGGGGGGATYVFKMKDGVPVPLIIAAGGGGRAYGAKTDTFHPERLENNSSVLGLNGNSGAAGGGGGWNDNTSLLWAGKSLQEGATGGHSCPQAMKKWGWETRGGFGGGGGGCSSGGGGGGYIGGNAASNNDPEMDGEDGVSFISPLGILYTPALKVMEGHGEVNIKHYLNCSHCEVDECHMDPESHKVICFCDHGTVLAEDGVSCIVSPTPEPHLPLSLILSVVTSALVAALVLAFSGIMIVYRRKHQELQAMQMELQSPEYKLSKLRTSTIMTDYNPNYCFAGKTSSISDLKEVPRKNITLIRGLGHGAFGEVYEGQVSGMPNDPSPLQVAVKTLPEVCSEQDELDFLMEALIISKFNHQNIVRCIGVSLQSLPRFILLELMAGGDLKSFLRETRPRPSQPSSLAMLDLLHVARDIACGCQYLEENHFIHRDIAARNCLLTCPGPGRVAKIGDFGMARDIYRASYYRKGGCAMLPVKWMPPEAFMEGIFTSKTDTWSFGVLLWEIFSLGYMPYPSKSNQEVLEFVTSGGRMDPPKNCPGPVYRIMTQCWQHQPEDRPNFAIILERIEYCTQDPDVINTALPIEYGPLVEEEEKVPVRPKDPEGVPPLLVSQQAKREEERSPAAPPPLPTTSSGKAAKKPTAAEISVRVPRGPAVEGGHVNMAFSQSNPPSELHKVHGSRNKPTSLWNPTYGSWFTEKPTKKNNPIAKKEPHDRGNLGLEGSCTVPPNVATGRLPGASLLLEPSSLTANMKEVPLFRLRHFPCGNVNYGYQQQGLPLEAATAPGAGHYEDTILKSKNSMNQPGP
Data set [2] addresses L1196M mutated ALK kinase (Homo sapiens (Human), UniProt Q9UM73, L1196M). The data set can be described thus: biochemical.
Data set [3] addresses G1269S mutated ALK kinase (Homo sapiens (Human), UniProt Q9UM73, G1269S). The data set can be described thus: biochemical.
Data set [4] is described as follows: In vivo pharmacokinetics in SD rats. The note with it: Sprague-Dawley, rat, po, 5 mg/kg.
The next data set is described as follows: in vivo. The settings on record: Sprague-Dawley, rat, po, 5 mg/kg.

Where only a bound is given, the exact number is not on record here.

CYP-3A4, sequence (P08684 whole entry): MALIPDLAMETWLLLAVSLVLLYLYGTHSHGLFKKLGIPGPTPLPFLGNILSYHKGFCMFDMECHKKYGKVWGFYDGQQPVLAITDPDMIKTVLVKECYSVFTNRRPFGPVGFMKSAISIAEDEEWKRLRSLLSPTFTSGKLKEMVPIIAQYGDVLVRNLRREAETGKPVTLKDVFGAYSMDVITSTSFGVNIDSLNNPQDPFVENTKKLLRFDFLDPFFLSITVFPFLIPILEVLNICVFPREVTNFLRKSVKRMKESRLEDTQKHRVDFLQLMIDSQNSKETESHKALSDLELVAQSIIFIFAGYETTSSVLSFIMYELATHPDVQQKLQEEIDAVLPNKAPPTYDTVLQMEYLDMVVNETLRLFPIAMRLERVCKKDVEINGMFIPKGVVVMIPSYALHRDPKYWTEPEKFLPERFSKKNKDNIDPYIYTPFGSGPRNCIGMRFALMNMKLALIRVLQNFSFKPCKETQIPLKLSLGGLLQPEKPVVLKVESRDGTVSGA
G1269S mutated ALK kinase, sequence (Q9UM73 19-1620 G1269S): as the sequence (Q9UM73 19-1620) above, with G1251S counted along it
L1196M mutated ALK kinase, sequence (Q9UM73 19-1620 L1196M): as the sequence (Q9UM73 19-1620) above, with L1178M counted along it

Take `COc1cc(N2CCNC[C@@H]2C)ncc1-c1cnc(N)c(O[C@H](C)c2c(Cl)ccc(F)c2Cl)c1` [Example 27, 5-((R)-1-(2,6-dichloro-3-fluorophenyl)ethoxy)-4′-methoxy-6′-((S)-2-methylpiperazin-1-yl)-[3,3′-bipyridin]-6-amine]: on CYP-3A4, the “inhibition against CYP-3A4 (in words)” value is listed as “no significant inhibition” and the IC50 was over 10 µM. Moreover, the “Average tumor volume (mm^3) D0” value in data set [1] (12.5 mg/kg PO) was determined as 134.3 mm^3. Further, in data set [1] (12.5 mg/kg PO, D21), the “% Inhibition rate D21” value came to 78%, the “% T/C D21” value amounted to 22% and the “Average tumor volume (mm^3) D21” value worked out at 394.8 mm^3. Also, the “Average tumor volume (mm^3) D0” value in data set [1] (25 mg/kg PO) was determined as 131.0 mm^3. Also, in data set [1] (25 mg/kg PO, D21), the “Average tumor volume (mm^3) D21” value is on record as 21.7 mm^3. Moreover, the “% T/C D21” value in data set [1] (25 mg/kg PO, D21, tumor regression formula) was −83%. For the same compound, the IC50 at ALK kinase stood at 1.96 nM. Further, the IC50 in data set [2] was found to be 0.0351 ± 0.0053 µM. The compound further showed an IC50 in data set [3] of 0.0613 ± 0.0079 µM. In addition, in data set [4], the AUC(0-inf) (commonly the area under the concentration-time curve extrapolated to infinity) worked out at 601 ng·h/mL; the Cmax (in general, the maximum level reached in the sampled fluid or tissue) was 69.7 ng/mL; the Tmax – broadly, the time at which the peak concentration occurs – came out at 3.67 h; the half-life – broadly, the time needed for the level to fall by half in the phase considered – was 5.45 h.
Turning to `COc1cc(-c2cnc(N)c(O[C@H](C)c3c(Cl)ccc(F)c3Cl)c2)cnc1C1=CCNCC1` [Example 30, (R)-5-(1-(2,6-dichloro-3-fluorophenyl)ethoxy)-5′-methoxy-1″,2″,3″,6″-tetrahydro-[3,3′:6′,4″-terpyridin]-6-amine], on CYP-3A4, the “inhibition against CYP-3A4 (in words)” value is “no significant inhibition” and the IC50 is over 10 µM. Also, in “in vivo”, the AUC(0-inf) turned out to be 1270 ng·h/mL, the concentration peaked (Cmax) at 113 ng/mL, the Tmax was found to be 3 h and the half-life is 4.43 h.
`CCOc1cc(N2CCNC[C@@H]2C)ncc1-c1cnc(N)c(O[C@H](C)c2c(Cl)ccc(F)c2Cl)c1` [Example 53, 5-((R)-1-(2,6-dichloro-3-fluorophenyl)ethoxy)-4′-ethoxy-6′-((S)-2-methylpiperazin-1-yl)-[3,3′-bipyridin]-6-amine]: in data set [4], the area under the curve AUC(0-inf) was determined as 830 ng·h/mL, the Cmax was 62.6 ng/mL, the Tmax is 3.33 h and the half-life is 4.75 h.

These data come from patent US9708295B2, “Substituted 2-aminopyridine protein kinase inhibitor” (CHIA TAI TIANQING PHARMACEUTICAL GROUP CO., LTD, priority 2013, dated 2017).
